Earlier results on ten compounds are cited in patent US6521608B1, “Vitamin D and its analogs in the treatment of tumors and other hyperproliferative disorders” (Oregon Health & Science University, priority 1998, dated 2003).

One data set has as its target T1, VDR (chick intestine) (Gallus gallus, UniProt O42392).
T1 construct: SPC indicates the species of origin of the nVDR where c=chick intestine, r=rat intestine; from tissue; host or cells: chick intestine
T1 sequence (O42392 1-451): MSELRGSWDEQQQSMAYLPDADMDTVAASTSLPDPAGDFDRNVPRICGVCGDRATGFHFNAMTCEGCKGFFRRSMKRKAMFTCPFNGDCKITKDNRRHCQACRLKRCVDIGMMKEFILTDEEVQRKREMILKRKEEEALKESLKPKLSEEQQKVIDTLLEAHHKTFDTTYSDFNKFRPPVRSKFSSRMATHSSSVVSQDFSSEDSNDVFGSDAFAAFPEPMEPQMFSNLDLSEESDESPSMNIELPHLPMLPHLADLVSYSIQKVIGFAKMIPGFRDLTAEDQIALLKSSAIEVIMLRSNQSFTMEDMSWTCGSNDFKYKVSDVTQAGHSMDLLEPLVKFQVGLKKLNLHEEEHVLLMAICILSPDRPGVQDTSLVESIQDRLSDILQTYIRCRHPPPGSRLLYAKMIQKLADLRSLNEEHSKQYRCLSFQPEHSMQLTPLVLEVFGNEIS
Particulars: cited from earlier work.

A further data set addresses T2, VDR (rat intestine) (Rattus norvegicus, UniProt P13053).
T2 construct: SPC indicates the species of origin of the nVDR where c=chick intestine, r=rat intestine; from tissue; host or cells: rat intestine
T2 sequence (P13053 1-423): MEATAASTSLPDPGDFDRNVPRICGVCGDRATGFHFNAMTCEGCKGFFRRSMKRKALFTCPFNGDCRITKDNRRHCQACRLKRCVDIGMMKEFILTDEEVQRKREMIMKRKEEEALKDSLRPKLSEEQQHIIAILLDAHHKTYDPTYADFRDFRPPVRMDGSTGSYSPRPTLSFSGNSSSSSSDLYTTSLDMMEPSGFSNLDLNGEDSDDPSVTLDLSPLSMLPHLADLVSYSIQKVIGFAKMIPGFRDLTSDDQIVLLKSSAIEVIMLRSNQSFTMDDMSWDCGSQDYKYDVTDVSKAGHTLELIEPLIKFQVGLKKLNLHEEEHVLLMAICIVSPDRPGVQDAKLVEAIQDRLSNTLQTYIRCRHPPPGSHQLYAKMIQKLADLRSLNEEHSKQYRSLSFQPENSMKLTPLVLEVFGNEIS
Particulars: cited from earlier work.

Data set [1] has as its target T3, VDR (rat osteosarcoma ROS 17/2.8 cells) (Rattus norvegicus, UniProt P13053).
T3 construct: m=MCF-7 human breast cancer cells, z=rat osteosarcoma ROS 17/2.8 cells; endogenous in cells; host or cells: ROS 17/2.8 rat osteosarcoma cells
T3 sequence (P13053 1-423): T2 sequence (P13053 1-423)
Particulars: cited from earlier work.

In data set [2] the target is T4, VDR (MCF-7 human breast cancer cells) (Homo sapiens, UniProt P11473).
T4 construct: m=MCF-7 human breast cancer cells, z=rat osteosarcoma ROS 17/2.8 cells; endogenous in cells; host or cells: MCF-7 human breast cancer cells
T4 sequence (P11473 1-427): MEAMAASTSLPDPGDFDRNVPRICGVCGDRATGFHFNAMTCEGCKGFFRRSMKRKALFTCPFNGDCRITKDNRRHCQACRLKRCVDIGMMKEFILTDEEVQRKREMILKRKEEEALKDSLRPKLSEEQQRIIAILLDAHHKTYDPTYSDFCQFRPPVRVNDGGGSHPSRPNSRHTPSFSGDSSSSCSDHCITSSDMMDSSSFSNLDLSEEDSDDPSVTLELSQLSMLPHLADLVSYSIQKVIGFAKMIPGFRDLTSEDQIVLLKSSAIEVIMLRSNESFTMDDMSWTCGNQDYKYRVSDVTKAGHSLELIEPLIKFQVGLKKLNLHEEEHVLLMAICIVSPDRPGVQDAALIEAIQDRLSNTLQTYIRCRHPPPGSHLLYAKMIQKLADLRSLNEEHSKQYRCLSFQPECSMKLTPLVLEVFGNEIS
Particulars: MCF-7 cells; cited from earlier work.

For data set [3] the following is noted: relative to calcitriol = 1; cited from earlier work.
The next data set deals with T5, VDR (U-937 cells) (Homo sapiens, UniProt P11473).
T5 construct: obtained in human transformed cell lines where h=HL-60 cells, u=U-937; endogenous in cells; host or cells: U-937
T5 sequence (P11473 1-427): T4 sequence (P11473 1-427)
Particulars: cited from earlier work.

Data set [4] has as its system locally advanced or cutaneous metastatic breast cancer. Particulars: topical, cited from earlier work.

Where “and” joins values, the source holds several entries; their conditions need not be identical. Equal entries are not always repeated.

With `C=C1/C(=C\C=C2/CCC[C@]3(C)C([C@H](C)CC#CC(C)(C)O)=CC[C@@H]23)C[C@@H](O)C[C@@H]1O` [1,25-(OH)2-16-Ene-23-yne-D3, 1,25-(OH)2-16-ene-23-yne-D3], the “Relative Competitive index for VDR (Calcitriol = 100)” value is 68 (chick) and 70 (chick) and 90 (chick) and 80 (chick) on VDR (chick intestine); 50 (rat intestine) on VDR (rat intestine). Take `C=C1/C(=C\C=C2/CCC[C@]3(C)[C@@H]([C@H](C)/C=C/C=C/C(O)(CC)CC)CC[C@@H]23)C[C@@H](O)C[C@@H]1O` [EB 1089, 24a,26a,27a-trihomo-22,24-diene-1α, 25-(OH)2-D3]: the “Relative Competitive index for VDR (Calcitriol = 100)” value at VDR (chick intestine) is 17 (chick). Regarding `C=C1/C(=C\C=C2/CCC[C@]3(C)[C@@H]([C@H](C)OCCC(C)(C)O)CC[C@@H]23)C[C@@H](O)C[C@@H]1O` [22-Oxacalcitriol, 22-oxa-1α,25-(OH)2-D3], the “Relative Competitive index for VDR (Calcitriol = 100)” value in data set [1] was 100 (rat osteosarcoma); in data set [2], 100 (MCF-7 cells). The “calcemic index (CI)” value in data set [3] is given as “CI < 0.001”. As for `C=C1/C(=C\C=C2/CCC[C@]3(C)C([C@H](C)CCCC(C)(C)O)=CC[C@@H]23)C[C@@H](O)C[C@@H]1O` [1,25-(OH)2-16-Ene-D3, 1,25-(OH)2-16-ene-D3], the “Relative Competitive index for VDR (Calcitriol = 100)” value at VDR (chick intestine) is 165 (chick); on VDR (rat intestine), 240 (rat intestine) and 250 (rat intestine). Regarding `C=C1/C(=C\C=C2/CCC[C@]3(C)[C@@H]([C@H](C)CCCC(C)C)CC[C@@H]23)C[C@@H](O)C[C@@H]1O` [1alpha-(OH)-D3, 1α-hydroxyvitamin D3], the “Relative Competitive index for VDR (Calcitriol = 100)” value on VDR (chick intestine) is 0.17 (chick). On to `C=C1/C(=C\C=C2/CCC[C@]3(C)[C@@H]([C@@H](C)OCCCC(O)(CC)CC)CC[C@@H]23)C[C@@H](O)C[C@@H]1O` [KH 1060, 20-epi-22-oxa-24a,26a,27a-trihomo-1α,25-(OH)2-D3], for which the “calcemic index (CI)” value in data set [3] is on record as “CI = 1.3”. Consider 25-(OH)2-16-ene-23-yne-D3, for which the “Relative Competitive index for VDR (Calcitriol = 100)” value on VDR (chick intestine) is 0.4 (chick) and <0.4 (chick); on VDR (rat intestine), 0.07 (rat intestine). Take `C=C1C(=CC=C2CC(CF)CC3(C)C2CCC3C(C)CCCC(C)(C)O)CC(O)CC1O` (stereo not drawn) [11α-fluoromethyl-1α,25-(OH)2-D3]: the “calcemic index (CI)” value in data set [3] is listed as “about 0.1”. On to `C=C1/C(=C\C=C2/CCC[C@]3(C)[C@@H]([C@H](C)CCCC(C)(C)O)CC[C@@H]23)C[C@@H](O)C[C@@H]1O` [MC 1288, 1,25(OH2-20-epi-D3], for which the “Relative Competitive index for VDR (Calcitriol = 100)” value on VDR (chick intestine) was 147 (chick) and 120 (chick). With `C=C1/C(=C\C=C2/CCC[C@]3(C)[C@@H]([C@H](C)/C=C/[C@@H](O)C4CC4)CC[C@@H]23)C[C@@H](O)C[C@@H]1O` [MC 903, 1[…]24S-(OH)2-22-Ene-26,27-dehydro-D3], the “Relative Competitive index for VDR (Calcitriol = 100)” value is 111 (chick) and 76 (chick) and 100 (chick) at VDR (chick intestine); 240 (U-937 cells) on VDR (U-937 cells). In data set [3], the “calcemic index (CI)” value is “CI < 0.01”. In data set [4] (patients who completed 6 weeks of treatment), the “patients with a 50% reduction in the bidirectional diameter of the treated lesions” value is “Three of the 14”. In addition, the hypercalcemia result in data set [4] is on record as “hypercalcemia was a complication of the treatment”.
